Measured values: a melting point compilation (Tetko et al.; mined from patent text by program, amines drawn as free bases though some values may be those of a salt)

| SMILES | melting point [°C] |
| --- | --- |
| O=C(NCCC(O)(c1ccccc1)c1ccccc1)c1ccccc1 | 145 to 146 |
| OCCC#CC1CCC(COc2ccc(F)cc2)O1 (mixture of isomers) | 76 |
| CCCCCCCCCCCCc1nnc(C(C(=O)Nc2c(C(C)C)cccc2C(C)C)c2ccccc2)o1 (stereo not given) | 82 to 84 |
| CCCCCCCCCCC[C@H](CC(=O)N[C@@H](CO)C(=O)OCc1ccccc1)OC(=O)CCCCCCC | 50 to 51 |
| O=C1CCCCc2ccc([N+](=O)[O-])cc21 | 88 to 89 |
| CCOC(=O)CC(=O)CC(=O)c1cccnc1 | 187 to 189 |
| NC(=O)CN1C[C@@H]2CCCC[C@@H]2C1=O (relative stereo) | 142 to 144 |
| NC(=O)c1ccc(-c2ccc(N)cc2)cc1 | 281 to 284 |
| NS(=O)(=O)c1sc2ccccc2c1CCO | 162 to 164 |
| CN1CCN(C(=O)c2ccc(-n3nc(-c4ccccc4O)nc3-c3ccccc3O)cc2)CC1 | 226 to 229 |
| CC(C)(C)C1CCc2oc(=O)c(-c3ccccc3)c(O)c2C1 (stereo not given) | 195 |
| Cc1ccc(-c2ccc3c(c2)C=C(C(=O)NC2CCN(C(=O)OC(C)(C)C)CC2)CCO3)cc1 | 205 to 208 |
| CCCCCCCCCCCCCCOc1cc(OCCCOc2ccc(O)cc2)cc(C(=O)O)c1 | 91 to 93 |
| CN(C)c1ccc(CNc2ncnc3c2ncn3C2OC(CO)C(O)C2O)cc1 (stereo not given) | 170 to 171 |
| O=C(C=Cc1ccccc1)Nc1ccc(C(c2ccc(Cl)cc2)n2ccnc2)cc1 (stereo not given) | 244 |
| COC(=O)CCCCCCCCCCCCCCCCCCCCCOS(=O)(=O)c1ccc(C)cc1 | 74 to 76 |
| Cc1ccc(C#Cc2ccc(NC(=O)OC(C)(C)C)c(N)c2)cc1 | 175 |
| COc1cc(I)c(I)cc1OC | 134 to 136 |
| CCCCCCNc1cc(-c2nc(=O)c3ccccc3s2)ccn1 | 134 to 135 |
| FC(F)(c1ccccc1)c1nc(-c2ccncc2)cs1 | 54.5 to 55.5 |
| O=C(O)c1ccc(/C=C/c2cnc3ccccc3c2)cc1 | 287 to 290 |
| CCC(=O)c1ccc2c(c1)C(C(=O)Nc1cccc(C(=O)Nc3ccccc3)c1)C(=O)N2CC (stereo not given) | 179 to 180 |
| CCCCCC(C)C(C)c1cc(O)c2c(c1)OC(C)(C)C1=C2CN(C(C)C(=O)NC(N)=O)CC1 (stereo not given) | 95 to 100 |
| Cc1ccc2c3c(ccc2n1)OCC(CN1CCC(c2nc4ccccc4o2)CC1)O3 (stereo not given) | 128 to 130 |

| SMILES | melting point [°C] |
| --- | --- |
| Nc1ccc(Cn2nc3ccccc3n2)cc1 | 229 to 230 |
| CC1(C2N=NC(=O)O2)CC1 (stereo not given) | 68 to 70 |
| CCCC(=O)N1CCC(C(=O)OC2c3ccccc3C(=O)N2c2ccc3ccc(Cl)nc3n2)CC1 (stereo not given) | 165 |
| COC(=O)c1ccc(OCCCN(C(C)=O)c2ccc(Cl)cc2)cc1 | 68 to 69 |
| CC1C(=O)N(c2ccc(OCc3ccccc3)cc2)C(=S)N1c1ccccc1 (stereo not given) | 155 |
| O=C1C2=C(NC3(OCCO3)C(c3ccccc3)=N2)c2ccccc21 | 296 |
| COc1ccc(-c2ccc(Br)c3ccsc23)cc1 | 103 to 104 |
| COc1ccc(CC(=O)c2c(O)c3cccnc3n(-c3ccccc3)c2=O)cc1OC | 161 to 163 |
| Cc1cc(Nc2ccnc(Nc3ccc(S(=O)(=O)N(CCNC(=O)OC(C)(C)C)C4CCN(C(=O)OC(C)(C)C)CC4)cc3)n2)ccc1F | 242 to 244 |
| CC(=O)Nc1ccc(OCC2CCC=CO2)cc1 (stereo not given) | 114 to 116 |
| Nc1ccccc1C(=O)OCCN1CCN(c2cccc(Cl)c2)CC1 | 76 |
| Cn1c(-c2ccc(N3CCOCC3)cc2)cnc1[C@H](Cc1ccccn1)N(C=O)c1cc2cc(Br)ccc2o1 | 173 to 174 |
| CC1=C(C(=O)OCCO)C(c2ccccc2OCc2ccccc2)C([N+](=O)[O-])=C(C)N1 (stereo not given) | 183 to 185 |
| Cc1ccc(C(=O)c2cnn3c(-c4cccc(NC(=O)C5CC5)c4)ccnc23)s1 | 243 to 245 |
| Cc1cc(-c2cccc(C(=O)CC(=O)Nc3cc(-c4ccccc4F)ccc3NC(=O)OC(C)(C)C)c2)on1 | 158 to 160 |
| CC(=O)c1cc(Br)cc(Cc2cc(Cl)cc(Cc3cc(Br)ccc3O)c2O)c1O | 185 to 186 |
| O=CNC(Cl)C(Cl)(Cl)CCl (stereo not given) | 55 to 57 |
| COc1ccc(-c2cnc3c(-c4ccsc4)cnn3c2)cc1 | 191 to 193 |
| CN1C(=O)C(C(=O)Nc2ccccn2)Sc2ccccc21 (stereo not given) | 141 to 143 |
| N#Cc1ccc(Cn2cncc2CCNC(=O)[C@H]2CN(Cc3ccccc3)CCN2C(=O)CC2CCN(C(N)=O)CC2)cc1 | 118 |
| CNC(=O)Oc1ccc2c(c1)c1c(n2C)CC(CO)C1 (stereo not given) | 137 to 138 |
| CCCCC(CC)CNCCCOc1ccc2ccccc2c1 (stereo not given) | 97 |
| NNC(=O)CCCCC(=O)N(NC(=O)c1ccccc1O)C(=O)c1ccccc1O | 252 |
| COc1ccc(CCc2nnc(-c3ccc4occc4c3)o2)cc1 | 127 to 128 |

Next, values leading:

| melting point [°C] | SMILES |
| --- | --- |
| 224 to 227 | COC(=O)c1ccc2nc3n(c(=O)c2c1)CCC3=Cc1ccccc1 |
| 253 | CCOc1ccccc1C1(O)C(=O)Nc2cc(C)c(Cl)cc21 (stereo not given) |
| 204 to 206 | CCOc1cc([N+](=O)[O-])ccc1N1C(=O)c2ccccc2C1=O |
| 184 to 185 | NC(=O)N1C(=O)C(=C(OC(=O)c2ccccn2)c2cccs2)c2cc(F)c(Cl)cc21 |
| 96 | C[C@@H](C(=O)O)N(C)C(=O)c1cc(C(F)(F)F)cc(N)c1N |
| 118 to 119 | COc1cc(Nc2nccc(-c3ccc(N4CCNC(CO)C4)nc3)n2)cc(OC)c1OC (stereo not given) |
| 286 to 287 | O=c1[nH]c2cc(Cl)ccc2c(=O)n1S(=O)(=O)c1ccc(Cl)cc1 |
| 66 to 67 | CCOC(=O)C(C)(C)c1nc2ccc(Cl)nn2c1Cl |
| 204 | CCc1ccnc(C(=O)c2[nH]c3ccc(C(F)(F)F)cc3c2CC(=O)O)c1 |
| 127 | Cc1c(C(F)(F)F)cnn(-c2cc(OCC3CO3)c(Cl)cc2F)c1=O (stereo not given) |
| 190 to 192 | Cn1cc(-c2ccccc2)c(=O)c(-c2ccc(F)cc2Cl)c1 |
| 300 to 301 | Cn1c(C(N)=O)c(-c2ccc(F)cc2)c2ncccc2c1=O |
| 184 to 187 | COc1cc(C=C2CC(=O)OC2=O)cc(OC)c1OC |
| 275 to 281 | CNc1c([N+](=O)[O-])cc2c(=O)c(C(=O)O)cn(-c3cc(N)c(F)cc3F)c2c1C |
| 100 to 103 | CC(C)(C)OC(=O)NCC(=O)Oc1cc(Cl)c(Cl)cc1Cl |
| 234 to 237 | CCOC(=O)c1cn(Cc2csnn2)c2cc(F)c(F)cc2c1=O |
| 163 to 166 | CCCc1nc2c(N)nc3cc(OCCN4CCCC4=O)ccc3c2s1 |
| 170 to 171 | Fc1cccc(Cl)c1-c1nnc2ccc(C(F)(F)F)cn12 |
| 187 to 189 | Fc1ccc2occ(N3CCN(C4CCN(c5ccc(F)c6cccnc56)CC4)CC3)c2c1 |
| > 300 | COc1ccc2c(O)c(-c3ccccc3OC)c(=O)[nH]c2c1 |
| 204 to 206 | Cc1c(C(F)(F)F)cc(Cl)c(-n2cnc(C(F)(F)F)cc2=O)c1Cl |
| 52 to 54 | CCCc1nn(C)c2c(=O)n(CCCOc3ccc(SC(C)(C)C(=O)OCC)cc3)c(C)nc12 |
